From patent publication US20070027093A1, “Anorectic” (Japan Tobacco Inc., priority 2004, published 2007) come the findings set out here.

SMILES strings stand for the structures. Read-outs that look alike come from different tables or passages of the source.

Experiment [1] relates to SD(IGS) rats. The experiment is described as follows: Evaluation of compounds' effect on food consumption in rats. The class given is in vivo. Conditions: Rattus norvegicus, fasted SD(IGS) rats, high fat diet; for inhibition in vivo at 10 mg/kg: 10 mg/kg oral; for inhibition in vivo at 1 mg/kg: 1 mg/kg oral. The text has this: Evaluation of Compounds' Effect on Food Consumption in Rats
SD(IGS) rats (Charles River Japan, Inc., 5-10 weeks of age, male) were used for the pharmacological tests. Rats were individually housed in the room set to a light cycle of lights-out at 10 am and lights-on at 10 pm, and were adapted to high fat diet (35% w/w). They were acclimated for more than 10 days prior to experiments under these conditions.
Based on the food consumption during acclimation and the body weight on the day of experiment, rats were grouped with no difference between groups.
As the test compound, Compounds A-P were used. These test compounds were suspended in 0.5% methyl cellulose solution.
Rats were fasted for about 24 hours before experiment. Each dose of the test compound was orally administered just after the lights-out, and immediately thereafter, the feeding of the high fat diet was resumed. The food weight was measured at 1, 4 and 8 hours after the resumption of the feeding to obtain the cumulative food consumption. The inhibitory rate on food consumption was determined by the following formula using the weight of the cumulative food consumption in each group.
The inhibitory rate on food consumption (%)=(1-test compound group/vehicle group)×100

Experiment [2] deals with T1, human DGAT1 (Homo sapiens, UniProt O75907).
T1 construct: FLAG (N); made in house; host or cells: Sf21 insect cells (baculovirus, Bac-to-Bac system); cell membrane fraction
T1 sequence (O75907 1-488): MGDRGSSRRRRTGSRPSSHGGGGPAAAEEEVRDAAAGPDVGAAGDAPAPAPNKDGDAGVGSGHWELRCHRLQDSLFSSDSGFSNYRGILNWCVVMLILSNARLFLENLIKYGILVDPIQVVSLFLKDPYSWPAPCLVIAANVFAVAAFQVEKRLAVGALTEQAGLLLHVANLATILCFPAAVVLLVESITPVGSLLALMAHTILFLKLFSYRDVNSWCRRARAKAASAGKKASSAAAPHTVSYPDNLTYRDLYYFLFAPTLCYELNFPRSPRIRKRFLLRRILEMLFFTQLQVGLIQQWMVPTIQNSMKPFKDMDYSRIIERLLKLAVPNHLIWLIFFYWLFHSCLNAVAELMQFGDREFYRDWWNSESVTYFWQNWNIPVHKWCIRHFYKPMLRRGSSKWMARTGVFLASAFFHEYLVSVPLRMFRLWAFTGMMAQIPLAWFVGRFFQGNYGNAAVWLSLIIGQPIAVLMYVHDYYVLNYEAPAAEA
Nature of the experiment: Assay of DGAT1 enzyme inhibitory activity (Scintillation Proximity Assay). The class given is biochemical. Conditions: human DGAT1 membrane fraction from Sf21 cells, 200 μM dioleoyl glycerol, 25 μM 14C decanoyl CoA, SPA; read-out: DGAT1 enzyme inhibitory activity (IC50 class).
Description: The enzyme source used for the assay was prepared using a human DGAT1 cDNA isolated from the human liver cDNA library. To be specific, a restriction enzyme cleaving sequence and a flag-labeling sequence were added onto the 5′ side and a restriction enzyme cleaving sequence was added onto the 3′ side of the human DGAT1 cDNA by PCR, and human flag tag DGAT1 baculovirus was prepared using Bac-to-Bac Baculovirus Expression System (Invitrogen). Sf21 insect cells were infected for 24-72 hours, recovered and ruptured in a homogenizing buffer using a microfluidizer. The homogenate was centrifuged at 45,000 rpm for 1 hour, and the cell membrane fractions were recovered and used as an enzyme source.
The DGAT inhibitory activity was measured by Scintillation Proximity Assay (SPA). Human DGAT1 membrane fraction (0.25 μg/well) was mixed with various concentrations of the compound and 200 μM of dioleoyl glycerol (enzyme substrate). […] Wheat Germ Agglutinin (WGA) SPA beads-suspended 6 mM HgCl2 (25 μL) was added to terminate the reaction, and the reaction mixture was kept at room temperature for 2 hours to allow adhesion of produced TG onto the SPA beads together with the cell membrane. The mixture was centrifuged at 2,500 rpm for 5 min to precipitate the SPA beads. The radioactivity was measured using Top Count.

Where [3] appears, read: cumulative food consumption 1 h after resumption of feeding, read-out: inhibitory rate on food consumption, 1 h.
Where [4] appears, read: cumulative food consumption 4 h after resumption of feeding, read-out: inhibitory rate on food consumption, 4 h.
Setting [5] is: cumulative food consumption 8 h after resumption of feeding, read-out: inhibitory rate on food consumption, 8 h.

As for `CC1(C)Oc2ncnc(N)c2N=C1c1ccc([C@H]2CC[C@H](CC(=O)O)CC2)cc1` [Compound A], the inhibition in vivo at 10 mg/kg in experiment [1] (setting [3]) was 29%; in experiment [1] (setting [4]), 37%; in experiment [1] (setting [5]), 30%.

Consider `CCCc1c(C(=O)OCC)c(C(=O)OCC)c2c(-c3ccccc3)cc(N3CCOCC3)nn12` [Compound B, Diethyl 2-morpholin-4-yl-4-phenyl-7-propylpyrrolo[1,2-b]pyridazine-5,6-dicarboxylate], for which the values for the inhibition in vivo at 10 mg/kg in experiment [1] (setting [3]), in experiment [1] (setting [4]) and in experiment [1] (setting [5]) were 26%, 14% and 4%, respectively. The 50% inhibitory concentration (IC50) in experiment [2] is more than 0.1 µM.

For `CC1(C)Oc2ncnc(N)c2N=C1c1ccc([C@H]2CC[C@H](CC(=O)O)CC2)cc1` [Compound C], the inhibition in vivo at 1 mg/kg in experiment [1] (setting [3]) came out at 24%; in experiment [1] (setting [4]), 30%; in experiment [1] (setting [5]), 19%.

In the case of `Cc1nc(N)c2c(n1)OC(C)(C)C(c1ccc([C@H]3CC[C@H](CC(=O)O)CC3)cc1)=N2` [Compound D], the inhibition in vivo at 1 mg/kg in experiment [1] (setting [3]) was 50%; in experiment [1] (setting [4]), 27%; in experiment [1] (setting [5]) it was 17%.

In the case of `Cc1nc(N)c2c(n1)OC(C)(C)C(c1ccc([C@H]3CC[C@H](CNC(=O)CO)CC3)cc1)=N2` [Compound E], the results for the inhibition in vivo at 1 mg/kg in experiment [1] (setting [3]), in experiment [1] (setting [4]) and in experiment [1] (setting [5]) were 6%, 15% and 20%, respectively.

In the case of `Cc1nc(N)c2c(n1)OC(C)(C)C(c1ccc([C@H]3CC[C@H](CCc4nc(=O)on4C)CC3)cc1)=N2` [Compound F], the inhibition in vivo at 1 mg/kg worked out at 11% in experiment [1] (setting [3]), 20% in experiment [1] (setting [4]) and 13% in experiment [1] (setting [5]).

For `Cc1nc(N)c2c(n1)OC(C)(C)C(c1ccc([C@H]3CC[C@H](CNC(=O)C(C)(C)CO)CC3)cc1)=N2` [Compound G], the inhibition in vivo at 1 mg/kg was determined as 29% in experiment [1] (setting [3]), 19% in experiment [1] (setting [4]) and 15% in experiment [1] (setting [5]).

`Cc1nc(N)c2c(n1)OC(C)(C)C(c1ccc([C@H]3CC[C@H](CNC(=O)CO)CC3)c(Cl)c1)=N2` [Compound H]: the inhibition in vivo at 1 mg/kg was 36% in experiment [1] (setting [3]), 36% in experiment [1] (setting [4]) and 20% in experiment [1] (setting [5]).

In the case of `Cc1nc(N)c2c(n1)OC(C)(C)C(c1ccc([C@H]3CC[C@H](CNC(=O)C(C)(C)O)CC3)cc1)=N2` [Compound I], the inhibition in vivo at 1 mg/kg came to 30% in experiment [1] (setting [3]), 1% in experiment [1] (setting [4]) and 4% in experiment [1] (setting [5]).

As for `Cc1nc(N)c2c(n1)OC(C)(C)C(c1ccc([C@H]3CC[C@H](Cc4nc(=O)o[nH]4)CC3)cc1)=N2` [Compound J], the inhibition in vivo at 1 mg/kg in experiment [1] (setting [3]) stood at 8%; in experiment [1] (setting [4]), 23%; in experiment [1] (setting [5]), 10%.

Turning to `CC1(C)Oc2nc(C(F)(F)F)nc(N)c2N=C1c1ccc2c(c1)CCC21CCC(CC(=O)O)CC1` (centres unmarked) [Compound K], the figures for the inhibition in vivo at 1 mg/kg in experiment [1] (setting [3]), in experiment [1] (setting [4]) and in experiment [1] (setting [5]) were 19%, 37% and 22%, respectively.

Regarding `Cc1nc(N)c2c(n1)OC(C)(C)C(c1ccc([C@H]3CC[C@H](CN4CCCC(O)C4=O)CC3)cc1)=N2` (some centres unmarked) [Compound L], the inhibition in vivo at 1 mg/kg in experiment [1] (setting [3]) came to 10%; in experiment [1] (setting [4]) it was 16%; in experiment [1] (setting [5]), 9%. The half-inhibitory concentration (IC50) in experiment [2] was in the range of 0.01 to 0.1 µM.

For the molecule `CC1(C)Oc2nc(C(F)(F)F)nc(N)c2N=C1c1ccc([C@H]2CC[C@H](CC(=O)O)CC2)c(Cl)c1` [Compound M], the results for the inhibition in vivo at 1 mg/kg in experiment [1] (setting [3]), in experiment [1] (setting [4]) and in experiment [1] (setting [5]) were 26%, 12% and 14%, respectively.

Turning to `CC1(C)Oc2nc(C(F)(F)F)nc(N)c2N=C1c1ccc([C@H]2CC[C@H](CNC(N)=O)CC2)c(Cl)c1` [Compound N], the inhibition in vivo at 1 mg/kg in experiment [1] (setting [3]) came out at 17%; in experiment [1] (setting [4]) it was 6%; in experiment [1] (setting [5]), 7%.

On to `Cc1nc(N)c2c(n1)OC(C)(C)C(c1ccc([C@H]3CC[C@H](CNC(N)=O)CC3)c(Cl)c1)=N2` [Compound O], for which the values for the inhibition in vivo at 1 mg/kg in experiment [1] (setting [3]), in experiment [1] (setting [4]) and in experiment [1] (setting [5]) were 20%, 13% and 12%, respectively.

`CC1(C)Oc2ncnc(N)c2C=C1c1ccc2c(c1)CC[C@]21CC[C@@H](CC(=O)O)CC1` [Compound P]: the inhibition in vivo at 1 mg/kg in experiment [1] (setting [3]) worked out at 20%; in experiment [1] (setting [4]), 36%; in experiment [1] (setting [5]), 28%.
